Results published in publication PMC4580393 (British Journal of Cancer, 2015).

Key:
[1] = following intravenous administration; no reference given; cited from earlier work
[2] = Plasma pharmacokinetics of irinotecan and SN-38 with and without pimasertib; conditions: for Ratio of AUC(0–∞) test/reference / Ratio of Cmax test/reference: day 1 with pimasertib / day 15 without pimasertib
[3] = Single-dose plasma pharmacokinetics of pimasertib with and without FOLFIRI; type: in vivo, human; conditions: for Ratio of AUC(0–∞) test/reference / Ratio of Cmax test/reference / CL/f: median; for Ratio of AUC(0–∞) test/reference / Ratio of Cmax test/reference: day 1 with FOLFIRI / day 8 alone
[4] = Treatment-emergent adverse events, FOLFIRI plus pimasertib; type: in vivo, human
[5] = ref Awada et al, 2012, cited from earlier work
[6] = Dose-limiting toxicities and MTD of pimasertib combined with FOLFIRI; type: in vivo, human
KRAS mt mCRC = assay: Best overall response by RECIST v1.0, FOLFIRI plus pimasertib second-line; type: in vivo, human; conditions: 45 or 60 mg per day plus FOLFIRI
human liver microsomes = conditions: in vitro, ref Merck, data on file; cited from earlier work
[7] = 45 mg per day pimasertib cohort
[8] = median, irinotecan 180 mg m^−2 infusion, day 15, without pimasertib (reference)
[9] = median, irinotecan 180 mg m^−2 infusion, day 1, with pimasertib (test)

O=c1[nH]cc(F)c(=O)[nH]1 [5-FU, 5-fluorouracil]
mean apparent terminal half-life [1]: ~0.267 h

CCc1c2c(nc3ccc(OC(=O)N4CCC(N5CCCCC5)CC4)cc13)-c1cc3c(c(=O)n1C2)COC(=O)[C@]3(O)CC [Irinotecan, irinotecan, reference compound]
reduction of Cmax in the presence of pimasertib [2, 7]: 2.7% | reduction of exposure (AUC0–∞) in the presence of pimasertib [2, 7]: 8.9% | AUC(0-inf) ([2]; human, in vivo, 180 mg m^−2, AUC(0–∞), median, irinotecan 180 mg m^−2 infusion, day 1, with pimasertib (test)): 10600 ng·h/mL | Cmax ([2]; human, in vivo, 180 mg m^−2, Cmax, median, irinotecan 180 mg m^−2 infusion, day 15, without pimasertib (reference)): 2120 ng/mL | Tmax ([2]; human, in vivo, 180 mg m^−2, Tmax, median, irinotecan 180 mg m^−2 infusion, day 1, with pimasertib (test)): 1.5 h | Ratio of AUC(0–∞) test/reference ([2]; median): 0.911 | Ratio of Cmax test/reference ([2]; median): 0.973 | Tmax [2, 8]: 1.54 h

CCc1c2c(nc3ccc(O)cc13)-c1cc3c(c(=O)n1C2)COC(=O)[C@]3(O)CC [SN-38]
increase in Cmax with coadministration of pimasertib [2, 7]: 11% | reduction of exposure (AUC0–∞) in the presence of pimasertib [2, 7]: 9% | Ratio of AUC(0–∞) test/reference ([2]; median): 0.91 | Ratio of Cmax test/reference ([2]; median): 1.11 | AUC(0–t) [2, 9]: 150 ng·h/mL | AUC(0–∞) [2, 9]: 198 ng·h/mL | Cmax [2, 9]: 20.4 ng/mL | T1/2 [2, 9]: 13.6 h | AUC(0–t) [2, 8]: 146 ng·h/mL | AUC(0–∞) [2, 8]: 206 ng·h/mL | Cmax [2, 8]: 15.1 ng/mL | T1/2 [2, 8]: 15.7 h | Tmax [2, 8]: 1.6 h

O=C(NC[C@H](O)CO)c1ccncc1Nc1ccc(I)cc1F [pimasertib, Pimasertib]
reduction of exposure (AUC0–∞) in the presence of FOLFIRI ([3]; 45 mg per day cohort): 8.3% | reduction of maximum plasma concentration (Cmax) in the presence of FOLFIRI ([3]; 45 mg per day cohort): 16.3% | Ratio of AUC(0–∞) test/reference ([3]; 45 mg per day): 0.917 | Ratio of Cmax test/reference ([3]; 45 mg per day): 0.837 | Ratio of AUC(0–∞) test/reference ([3]; 60 mg per day): 0.825 | Ratio of Cmax test/reference ([3]; 60 mg per day): 0.751 | CL/f ([3]; single 45 mg dose, day 1, with FOLFIRI (test)): 38.7 L/h | CL/f ([3]; single 45 mg dose, day 8, alone (reference)): 34.2 L/h | CL/f ([3]; single 60 mg dose, day 1, with FOLFIRI (test)): 42.1 L/h | CL/f ([3]; single 60 mg dose, day 8, alone (reference)): 44.6 L/h | Patients with ≥1 pimasertib-related TEAE (by worst grade) ([4]; 45 mg per day (n=10), grade 1/2): 5 | Patients with ≥1 pimasertib-related TEAE (by worst grade) ([4]; 45 mg per day (n=10), grade 3): 5 | Patients with ≥1 pimasertib-related TEAE (by worst grade) ([4]; 45 mg per day (n=10), grade 4): 0 | incidence of grade ≥3 pimasertib-related TEAEs ([4]; 45 mg per day dose): 50.0% | Patients with ≥1 pimasertib-related TEAE (by worst grade) ([4]; 60 mg per day (n=6), grade 1/2): 2 | Patients with ≥1 pimasertib-related TEAE (by worst grade) ([4]; 60 mg per day (n=6), grade 3): 2 | Patients with ≥1 pimasertib-related TEAE (by worst grade) ([4]; 60 mg per day (n=6), grade 4): 2 | incidence of grade ≥3 pimasertib-related TEAEs ([4]; 60 mg per day dose): 66.7% | Patients with ≥1 pimasertib-related TEAE (by worst grade) ([4]; Overall (n=16), grade 1/2): 7 | Patients with ≥1 pimasertib-related TEAE (by worst grade) ([4]; Overall (n=16), grade 3): 7 | Patients with ≥1 pimasertib-related TEAE (by worst grade) ([4]; Overall (n=16), grade 4): 2 | time to resolution of ocular AEs from day of onset ([4]; all events except SRD in two patients): 3 to 139 days | Asthenia, pimasertib-related TEAE, patients ([4]; overall n=16): 37.5% | Diarrhoea, pimasertib-related TEAE, patients ([4]; overall n=16): 62.5% | Serous retinal detachment (SRD), pimasertib-related TEAE, patients ([4]; overall n=16): 37.5% | Skin/rash, pimasertib-related TEAE, patients ([4]; overall n=16): 50% | patients with at least one ocular event during trial treatment ([4]; overall n=16): 43.8% | patients with skin/rash events ([4]; overall n=16): 56.3% | recommended single-agent dose for phase II trials ([5]; administered continuously): 60 mg twice-daily | dose-limiting toxicities ([5]; single-agent phase I dose-escalation trial): skin rash, acneiform dermatitis, ocular events and stomatitis | patients who experienced a DLT ([6]; DLT analysis set, 15 patients, both dose levels): three | DLTs ([6]; first three patients, 45 mg per day): no DLTs | stable disease maintained for at least 12 weeks, share of the nine SD patients (KRAS mt mCRC): 66.7% | partial response as best overall response, patients (KRAS mt mCRC; efficacy analysis set n=15): 13.3% | progressive disease as best overall response, patients (KRAS mt mCRC; efficacy analysis set n=15): 20.0% | stable disease as best overall response, patients (KRAS mt mCRC; efficacy analysis set n=15): 60.0% | effect on 5-FU metabolism (human liver microsomes): does not alter 5-FU metabolism
